One data set has as its system MCF-7 cell line. Briefly: MTT cell viability assay, MCF-7. In kind it is cell-based. The method, then: MCF-7 cells were purchased from Procell Life Science and Technology Co., Ltd., Wuhan, China, and cultured in MEM or Leibovitz’s L-15 medium containing 2% FBS. MCF-7 cells were maintained in a 5% CO2-humidified atmosphere at 37 °C. KCL22, LAMA84, and K562 cells were obtained from the American Type Culture Collection (Manassas, VA, USA). The KBM5 cell line was previously provided by Dr. Bharat Aggarwal (University of Texas M.D. Anderson Cancer Center, Houston, TX, USA). KBM5 cells were cultured in IMDM medium with 10% inactivated FBS and 1% penicillin-streptomycin. KCL22, LAMA84, and K562 cells were cultured in RPMI with 10% FBS and 1% penicillin-streptomycin antibiotics and maintained at 37 °C in a 5% CO2 chamber.
(§1) Cells (1 × 10^4 cells/well) were seeded on a 96-well plate and treated with 4c (0, 5, 10, 15, 30, 50 µM) for 24 h. After 24 h of treatment, 30 µL of MTT solution (2 mg/mL) for 2 h, followed by MTT lysis overnight. Cell viability was analyzed by measuring the absorbance of lysed MTT crystals using VARIOSKAN LUX (Thermo Fisher Scientific Inc., Waltham, MA, USA) at 570 nm.
In general terms: Tetrazolium dyes change colour on reduction, which living cells bring about.

In a further data set the test system is MCF-10A cells. As to the kind of experiment: Cytotoxicity assay, MCF-10A. It is filed as cell-based. Conditions: normal mammary epithelial cells. As to the method:
as §1

Data set [1] is described as follows: DFT frontier molecular orbital calculations. The method, then:
Computational DFT studies for the molecules were performed using Gaussian09 [35]. The molecule was built and visualized by the Gaussview 5 program package. The molecular geometry of the molecules was optimized at the B3LYP level with a 6-311++G (d,p) basis set.
FMO analysis of compound 4c was performed using the B3LYP method with a 6-311 (2d, p) basis set. The HOMO of a molecule represents the site where the electron density is highest and is involved in electron donation, whereas the LUMO represents the site where the electron density is lowest and is involved in electron acceptance. The ELUMO-EHOMO energy gap is directly related to the molecule’s chemical reactivity and kinetic stability. The molecule has a smaller energy gap, which is attributed to less stability and more reactivity. In contrast, the molecule has a large energy gap, attributed to being less chemically reactive and having high chemical stability with greater hardness. […] It is observed that the HOMO-LUMO energy gap of 4l decreased by 1.24 eV and 1.04 eV in alpha and beta orbitals, respectively, when compared with the 4c molecule. […] In contrast, LUMO orbitals were localized on dichlorophenyl, triazole groups, and sulphur atoms of the lead molecule 4c. The chemical potential values for 4c and 4i were estimated to be −4.23 eV and −3.91 eV, respectively, and reflects their significant electron-accepting capacity. […]

[2] abbreviates: Homo sapiens, MCF7, viability of MCF-7 cell line.

We go through 18 compounds from article PMC10296415, “Methyl-Thiol-Bridged Oxadiazole and Triazole Heterocycles as Inhibitors of NF-κB in Chronic Myelogenous Leukemia Cells” (Biomedicines, 2023).

In general, IC50 refers to the concentration needed to halve the response being measured. The low end stands for greater potency in that assay, the high end for weaker potency in that assay. Broadly, the melting point is the temperature of the solid-liquid transition. The compound `COc1ccc(Cc2nnc(SCc3cn(-c4ccc(OC)cc4)nn3)o2)cc1` [Compound 4f, 2-(4-Methoxybenzyl)-5-(((1-(4-methoxyphenyl)-1H-1,2,3-triazol-4-yl)methyl)thio)-1,3,4-oxadiazole] displayed a melting point of 90 to 92 °C. The concentration for half-maximal inhibition (IC50) in the data set on MCF-7 cell line (setting [2]) came out at 34.5 ± 1.54 µM.

In turn, `COc1ccc(Cc2nnc(SCc3cn(-c4cccc(Cl)c4)nn3)o2)cc1OC` [Compound 4n, 2-(((1-(3-Chlorophenyl)-1H-1,2,3-triazol-4-yl)methyl)thio)-5-(3,4-dimethoxybenzyl)-1,3,4-oxadiazole] came in with a melting point of 70 to 72 °C. For the same compound, the half-maximal inhibitory concentration (IC50) in the data set on MCF-7 cell line (setting [2]) turned out to be 23.2 ± 1.37 µM.

Turning to `COc1ccc(Cc2nnc(SCc3cn(-c4ccc(C)cc4)nn3)o2)cc1OC` [Compound 4q, 2-(3,4-Dimethoxybenzyl)-5-(((1-(p-tolyl)-1H-1,2,3-triazol-4-yl)methyl)thio)-1,3,4-oxadia-zole], the IC50 was 19.7 ± 1.3 µM in the data set with MCF-7 cell line (viability of MCF-7 cell line) and over 100 µM in the data set with MCF-10A cells.

With `COc1ccc(Cc2nnc(SCc3cn(-c4ccccc4)nn3)o2)cc1` [Compound 4d, 2-(4-Methoxybenzyl)-5-(((1-phenyl-1H-1,2,3-triazol-4-yl)methyl)thio)-1,3,4-oxadiazole], the melting point lay within 60 to 62 °C. Moreover, the half-maximal inhibitory concentration (IC50) in the data set with MCF-7 cell line (setting [2]) came to 25.8 ± 1.41 µM.

`COc1ccc(Cc2nnc(SCc3cn(-c4ccccc4C)nn3)o2)cc1OC` [Compound 4r, 2-(3,4-Dimethoxybenzyl)-5-(((1-(o-tolyl)-1H-1,2,3-triazol-4-yl)methyl)thio)-1,3,4-oxadia-zole] came in with a concentration for half-maximal inhibition (IC50) in the data set with MCF-7 cell line (viability of MCF-7 cell line) of 35.7 ± 1.55 µM.

On to `COc1ccc(Cc2nnc(SCc3cn(-c4ccc(Cl)cc4)nn3)o2)cc1` [Compound 4a, 2-(((1-(4-Chlorophenyl)-1H-1,2,3-triazol-4-yl)methyl)thio)-5-(4-methoxybenzyl)-1,3,4-oxadiazole], for which the melting point is 92 to 94 °C. In the data set with MCF-7 cell line (setting [2]), this compound had a half-inhibitory concentration (IC50) of 9.58 ± 0.98 µM. In the data set on MCF-10A cells (Homo sapiens, MCF-10A), this compound registered an IC50 of over 100 µM.

The compound `COc1ccc(-n2cc(CSc3nnc(Cc4ccc(OC)c(OC)c4)o3)nn2)cc1` [Compound 4o, 2-(3,4-Dimethoxybenzyl)-5-(((1-(4-methoxyphenyl)-1H-1,2,3-triazol-4-yl)methyl)thio)-1,3,4-oxadiazole] had a melting point of 76 to 78 °C. This compound also came in with a 50% inhibitory concentration (IC50) with MCF-7 cell line (setting [2]) of 35.8 ± 1.55 µM.

In the case of `COc1ccc(Cc2nnc(SCc3cn(-c4ccc(Br)cc4)nn3)o2)cc1OC` [Compound 4k, 2-(((1-(4-Bromophenyl)-1H-1,2,3-triazol-4-yl)methyl)thio)-5-(3,4-dimethoxybenzyl)-1,3,4-oxadiazole], the melting point is 98 to 100 °C. In the data set on MCF-7 cell line (setting [2]), this compound came in with an IC50 of 31.9 ± 1.5 µM.

In turn, `COc1ccc(Cc2nnc(SCc3cn(-c4ccccc4)nn3)o2)cc1OC` [Compound 4m, 2-(3,4-Dimethoxybenzyl)-5-(((1-phenyl-1H-1,2,3-triazol-4-yl)methyl)thio)-1,3,4-oxadiazole] displayed a melting point of 46 to 48 °C. This compound also showed an IC50 in the data set with MCF-7 cell line (setting [2]) of 28.3 ± 1.45 µM.

For the compound `COc1ccc(Cc2nnc(SCc3cn(-c4ccc(O)cc4)nn3)o2)cc1` [Compound 4g, 4-(4-(((5-(4-Methoxybenzyl)-1,3,4-oxadiazol-2-yl)thio)methyl)-1H-1,2,3-triazol-1-yl)phenol], the melting point was 94 to 96 °C. Moreover, in the data set on MCF-7 cell line (setting [2]), the concentration for half-maximal inhibition (IC50) stood at 29.7 ± 1.47 µM.

In the case of `COc1cccc2c1C(=O)c1c(O)c3c(c(O)c1C2=O)C[C@@](O)(C(=O)CO)C[C@@H]3O[C@H]1C[C@H](N)[C@H](O)[C@H](C)O1` [Doxorubicin, reference compound], in the data set with MCF-7 cell line (setting [2]), 0.91 ± 0.04 µM corresponded to half-maximal inhibition (IC50).

On to `COc1ccc(Cc2nnc(SCc3cn(-c4ccc(Cl)cc4)nn3)o2)cc1OC` [Compound 4j, 2-(((1-(4-Chlorophenyl)-1H-1,2,3-triazol-4-yl)methyl)thio)-5-(3,4-dimethoxybenzyl)-1,3,4-oxadiazole], for which the melting point was 72 to 74 °C. This compound also had an IC50 in the data set with MCF-7 cell line (setting [2]) of 40.5 ± 1.61 µM.

Regarding `COc1ccc(Cc2nnc(SCc3cn(-c4cccc(Cl)c4)nn3)o2)cc1` [Compound 4e, 2-(((1-(3-Chlorophenyl)-1H-1,2,3-triazol-4-yl)methyl)thio)-5-(4-methoxybenzyl)-1,3,4-oxadiazole], the melting point lay within 94 to 96 °C. The compound further gave an IC50 with MCF-7 cell line (setting [2]) of 9 to 16 µM. Also, in the data set with MCF-7 cell line (viability of MCF-7 cell line), half-maximal inhibition (IC50) required 16.9 ± 1.23 µM. This compound registered a concentration for half-maximal inhibition (IC50) in the data set with MCF-10A cells (Homo sapiens, MCF-10A) of over 100 µM.

As for `COc1ccc(Cc2nnc(SCc3cn(-c4ccc(Br)cc4)nn3)o2)cc1` [Compound 4b, 2-(((1-(4-Bromophenyl)-1H-1,2,3-triazol-4-yl)methyl)thio)-5-(4-methoxybenzyl)-1,3,4-oxadia-zole], the IC50 with MCF-7 cell line (viability of MCF-7 cell line) is 8.44 ± 0.93 µM; in the data set with MCF-10A cells, over 100 µM.

In turn, `COc1ccc(Cc2nnc(SCc3cn(-c4ccccc4C)nn3)o2)cc1` [Compound 4h, 2-(4-Methoxybenzyl)-5-(((1-(o-tolyl)-1H-1,2,3-triazol-4-yl)methyl)thio)-1,3,4-oxadiazole] gave an IC50 in the data set with MCF-7 cell line (setting [2]) of 26.2 ± 1.42 µM.

Turning to `COc1ccc(Cc2nnc(SCc3cn(-c4ccccc4O)nn3)o2)cc1OC` [Compound 4p, 2-(4-(((5-(3,4-Dimethoxybenzyl)-1,3,4-oxadiazol-2-yl)thio)methyl)-1H-1,2,3-triazol-1-yl)phenol], the melting point was in the range of 122 to 124 °C. Moreover, the 50% inhibitory concentration (IC50) in the data set on MCF-7 cell line (setting [2]) is 65 ± 1.81 µM.

Turning to `COc1ccc(Cc2nnc(SCc3cn(-c4ccc(C)cc4)nn3)o2)cc1` [Compound 4i, 2-(4-Methoxybenzyl)-5-(((1-(p-tolyl)-1H-1,2,3-triazol-4-yl)methyl)thio)-1,3,4-oxadiazole], the melting point fell in the range of 104 to 106 °C. The compound also displayed an IC50 with MCF-7 cell line (setting [2]) of 45.4 ± 1.66 µM.

The compound `COc1ccc(Cc2nnc(SCc3cn(-c4ccc(Cl)c(Cl)c4)nn3)o2)cc1OC` [Compound 4l, 2-(((1-(3,4-Dichlorophenyl)-1H-1,2,3-triazol-4-yl)methyl)thio)-5-(3,4-dimethoxybenzyl)-1,3,4-oxadiazole] displayed a melting point of 102 to 104 °C. The IC50 in the data set with MCF-7 cell line (setting [2]) turned out to be 23.8 ± 1.38 µM. In data set [1] (alpha orbitals), the “decrease of HOMO-LUMO energy gap compared with the 4c molecule” value is reported as 1.24 eV. Besides, the “decrease of HOMO-LUMO energy gap compared with the 4c molecule” value in data set [1] (beta orbitals) was 1.04 eV.
